Measurements taken from ChEMBL document CHEMBL1147207 (Eur J Med Chem, 2007).
Blank lines part the entries; values can stand above or below the compound they belong to. Activity calls are given as the source filed them. No cut-off for these calls is given here. Bridge positions count the residues as written; N and C are the ends. Square brackets hold non-standard residues; d marks the D form. Peptide text beside a SMILES is read from it. Orn = NCCC[C@H](N)C(=O)O; Aib = CC(C)(N)C(=O)O; Mpa = O=C(O)CCS

Assays:
[1] = molecular target: T1, Oxytocin receptor (Rattus norvegicus, UniProt P70536); assay: Antagonist activity in rat uterus by uterotonic assay; assay type: functional, tissue-based; details: read-out: pA2 (converted)
T1 sequence (P70536 whole entry): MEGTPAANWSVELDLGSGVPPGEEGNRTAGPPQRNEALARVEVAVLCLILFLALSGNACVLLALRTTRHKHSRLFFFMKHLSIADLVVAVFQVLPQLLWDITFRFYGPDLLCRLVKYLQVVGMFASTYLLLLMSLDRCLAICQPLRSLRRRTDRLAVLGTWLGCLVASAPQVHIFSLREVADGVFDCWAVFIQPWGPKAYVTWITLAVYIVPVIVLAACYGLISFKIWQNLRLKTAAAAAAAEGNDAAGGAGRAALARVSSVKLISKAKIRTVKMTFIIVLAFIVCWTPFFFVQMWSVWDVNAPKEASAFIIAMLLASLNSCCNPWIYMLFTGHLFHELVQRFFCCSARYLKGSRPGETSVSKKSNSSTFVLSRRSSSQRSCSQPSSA

[2] = molecular target: T2, Oxytocin receptor (Homo sapiens, UniProt P30559); assay: Displacement of [3H]OT from human OT receptor expressed in HEK cells; assay type: cell-based, HEK293
T2 sequence (P30559 whole entry): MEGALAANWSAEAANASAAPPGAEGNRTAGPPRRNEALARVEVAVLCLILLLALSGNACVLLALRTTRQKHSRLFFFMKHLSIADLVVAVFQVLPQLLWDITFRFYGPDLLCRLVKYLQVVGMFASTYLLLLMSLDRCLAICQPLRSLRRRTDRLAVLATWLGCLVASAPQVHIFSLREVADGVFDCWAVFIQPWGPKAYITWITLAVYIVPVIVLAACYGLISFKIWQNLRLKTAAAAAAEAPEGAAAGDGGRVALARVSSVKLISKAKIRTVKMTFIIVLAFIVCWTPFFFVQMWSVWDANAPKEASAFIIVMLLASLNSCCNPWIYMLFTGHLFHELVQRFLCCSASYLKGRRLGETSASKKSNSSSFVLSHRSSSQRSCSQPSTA

[3] = molecular target: T3, Oxytocin receptor (Rattus norvegicus) (UniProt P70536); assay: Agonist activity in rat uterus by uterotonic assay; assay type: functional, tissue-based
T3 sequence (whole entry): T1 sequence (P70536 whole entry)

[4] = molecular target: Vasopressin V1a receptor (Rattus norvegicus) (UniProt P30560); assay: Antagonist activity in phenoxybenzamine-treated rat by Pressor assay; details: read-out: pA2 (converted)
[5] = molecular target: Vasopressin V1a receptor (Rattus norvegicus) (UniProt P30560); assay: Agonist activity in phenoxybenzamine-treated rat up to 0.16 mg/kg by Pressor assay

Sequence of Vasopressin V1a receptor (Rattus norvegicus) (P30560 whole entry, looked up): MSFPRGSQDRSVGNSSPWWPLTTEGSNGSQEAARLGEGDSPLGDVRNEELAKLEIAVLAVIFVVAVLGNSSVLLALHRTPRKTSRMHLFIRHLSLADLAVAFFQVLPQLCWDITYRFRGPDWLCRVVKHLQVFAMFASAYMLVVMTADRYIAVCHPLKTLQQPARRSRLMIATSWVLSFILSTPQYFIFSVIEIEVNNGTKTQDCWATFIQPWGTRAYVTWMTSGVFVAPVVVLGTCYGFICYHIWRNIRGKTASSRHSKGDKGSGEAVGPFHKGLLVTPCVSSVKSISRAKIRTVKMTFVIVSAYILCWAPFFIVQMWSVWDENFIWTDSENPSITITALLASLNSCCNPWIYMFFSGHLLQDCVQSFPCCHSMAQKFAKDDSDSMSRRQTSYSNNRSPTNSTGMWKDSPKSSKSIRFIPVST

SMILES: CC[C@H](C)[C@@H]1NC(=O)[C@H](Cc2ccc(O)cc2)NC(=O)[C@@H](N)CSSC[C@@H](C(=O)N[C@H](C(=O)N[C@@H](CC(C)C)C(=O)NCC(N)=O)C(C)(C)C)NC(=O)[C@H](CC(N)=O)NC(=O)[C@H](CCC(N)=O)NC1=O
IC50 [2]: 1380 nM

SMILES: CC[C@H](C)[C@@H]1NC(=O)[C@H](Cc2ccc(O)cc2)NC(=O)[C@@H](N)CSSC[C@@H](C(=O)NC(C)(C)C(=O)N[C@@H](CC(C)C)C(=O)NCC(N)=O)NC(=O)[C@H](CC(N)=O)NC(=O)[C@H](CCC(N)=O)NC1=O (H-CYIQNC[Aib]LG-NH2; disulfide 1-6)
Activity [3]: 1.7 IU/mg
IC50 [2]: 75 nM
Activity [5]: inactive

SMILES: CC[C@H](C)[C@@H]1NC(=O)[C@H](Cc2ccc(O)cc2)NC(=O)[C@@H](N)CSSC[C@@H](C(=O)N2CCCC[C@H]2C(=O)N[C@@H](CC(C)C)C(=O)NCC(N)=O)NC(=O)[C@H](CC(N)=O)NC(=O)[C@H](CCC(N)=O)NC1=O
Activity [3]: 79.8 IU/mg
IC50 [2]: 7 nM
Activity [5]: inactive

SMILES: CC(C)C[C@H](NC(=O)[C@H](NC(=O)[C@@H]1CSSC[C@H](N)C(=O)N[C@@H](Cc2ccc(O)cc2)C(=O)N[C@@H](C(C)(C)C)C(=O)N[C@@H](CCC(N)=O)C(=O)N[C@@H](CC(N)=O)C(=O)N1)C(C)(C)C)C(=O)NCC(N)=O
Activity [3]: 0 IU/mg
Activity [5]: inactive

SMILES: CCOc1ccc(CC2NC(=O)CCSSC[C@@H](C(=O)N[C@H](C(=O)N[C@@H](CC(C)C)C(=O)NCC(N)=O)C(C)(C)C)NC(=O)[C@H](CC(N)=O)NC(=O)[C@H](CCC(N)=O)NC(=O)[C@H](C(C)(C)C)NC2=O)cc1 (stereo in doubt)
Kb [1]: 355 nM
Activity [3]: 0 IU/mg
IC50 [2]: 7850 nM
Activity [5]: inactive

SMILES: CCc1ccc(C[C@H]2NC(=O)CCSSC[C@@H](C(=O)NC(C)(C)C(=O)N[C@@H](CC(C)C)C(=O)NCC(N)=O)NC(=O)[C@H](CC(N)=O)NC(=O)[C@H](CCC(N)=O)NC(=O)[C@H]([C@@H](C)CC)NC2=O)cc1
Kb [1]: 5.01 nM
Activity [3]: 0 IU/mg
Kb [4]: 316 nM
Activity [5]: inactive

SMILES: CCc1ccc(C[C@@H]2NC(=O)CCSSC[C@@H](C(=O)NC(C)(C)C(=O)N[C@@H](CC(C)C)C(=O)NCC(N)=O)NC(=O)[C@H](CC(N)=O)NC(=O)[C@H](CCC(N)=O)NC(=O)[C@H]([C@@H](C)CC)NC2=O)cc1
Kb [1]: 39.8 nM
Activity [3]: 0 IU/mg
Activity [5]: inactive

SMILES: CC[C@H](C)[C@@H]1NC(=O)[C@H](Cc2ccc(O)cc2)NC(=O)[C@@H](N)CSSC[C@@H](C(=O)N2CCC[C@H]2C(=O)N[C@@H](CC(C)C)C(=O)NCC(N)=O)NC(=O)[C@H](CC(N)=O)NC(=O)[C@H](CCC(N)=O)NC1=O
Activity [3]: 546 IU/mg

SMILES: CC[C@H](C)[C@@H]1NC(=O)[C@H](Cc2ccc(O)cc2)NC(=O)[C@@H](N)CSSC[C@@H](C(=O)N[C@@H](C(=O)N[C@@H](CC(C)C)C(=O)NCC(N)=O)C(C)(C)C)NC(=O)[C@H](CC(N)=O)NC(=O)[C@H](CCC(N)=O)NC1=O
Activity [3]: 1.8 IU/mg
Activity [5]: inactive

SMILES: CC[C@H](C)[C@@H]1NC(=O)[C@H]2Cc3ccccc3CN2C(=O)CCSSC[C@@H](C(=O)NC(C)(C)C(=O)N[C@@H](CC(C)C)C(=O)NCC(N)=O)NC(=O)[C@H](CC(N)=O)NC(=O)[C@H](CCC(N)=O)NC1=O
Kb [1]: 123 nM
Activity [3]: 0 IU/mg
IC50 [2]: 8500 nM
Activity [5]: inactive

SMILES: CCOc1ccc(C[C@H]2NC(=O)CCSSC[C@@H](C(=O)N3CCC[C@H]3C(=O)N[C@@H](CCCN)C(=O)NCC(N)=O)NC(=O)[C@H](CC(N)=O)NC(=O)[C@H]([C@@H](C)O)NC(=O)[C@H]([C@@H](C)CC)NC2=O)cc1 [ATOSIBAN] ([Mpa][dY](Et)ITNCP[Orn]G-NH2; disulfide 1-6)
Kb [1]: 5.13 nM
Activity [3]: 0 IU/mg

SMILES: CC(C)C[C@H](NC(=O)[C@@H](NC(=O)[C@@H]1CSSC[C@H](N)C(=O)N[C@@H](Cc2ccc(O)cc2)C(=O)N[C@@H](C(C)(C)C)C(=O)N[C@@H](CCC(N)=O)C(=O)N[C@@H](CC(N)=O)C(=O)N1)C(C)(C)C)C(=O)NCC(N)=O
Kb [1]: 741 nM
IC50 [2]: 51700 nM

Next, values leading:

Kb [1]: 13.5 nM
IC50 [2]: 55 nM
SMILES: CCOc1ccc(C[C@H]2NC(=O)CCSSC[C@@H](C(=O)NC(C)(C)C(=O)N[C@@H](CC(C)C)C(=O)N3Cc4ccccc4C[C@@H]3C(N)=O)NC(=O)[C@H](CC(N)=O)NC(=O)[C@H](CCC(N)=O)NC(=O)[C@H]([C@@H](C)CC)NC2=O)cc1

Activity [3]: 803 IU/mg
SMILES: CC[C@H](C)[C@@H]1NC(=O)[C@H](Cc2ccc(O)cc2)NC(=O)CCSSC[C@H](C(=O)N2CCC[C@H]2C(=O)N[C@@H](CC(C)C)C(=O)NCC(N)=O)NC(=O)[C@H](CC(N)=O)NC(=O)[C@H](CCC(N)=O)NC1=O

Kb [1]: 2510 nM
Activity [3]: 2 IU/mg
IC50 [2]: 130 nM
Kb [4]: > 1000 nM
Activity [5]: inactive
SMILES: CC[C@H](C)[C@@H]1NC(=O)[C@H](Cc2ccc(O)cc2)NC(=O)[C@@H](N)CSSC[C@@H](C(=O)N2Cc3ccccc3C[C@H]2C(=O)N[C@@H](CC(C)C)C(=O)NCC(N)=O)NC(=O)[C@H](CC(N)=O)NC(=O)[C@H](CCC(N)=O)NC1=O

Kb [1]: 11.7 nM
Activity [3]: 0 IU/mg
IC50 [2]: 1000 nM
Activity [5]: inactive
SMILES: CCOc1ccc(CC2NC(=O)CCSSC[C@@H](C(=O)N[C@H](C(=O)N[C@@H](CC(C)C)C(=O)NCC(N)=O)C(C)(C)C)NC(=O)[C@H](CC(N)=O)NC(=O)[C@H](CCC(N)=O)NC(=O)[C@H]([C@@H](C)CC)NC2=O)cc1 (stereo in doubt)

Kb [1]: 15.8 nM
Activity [3]: 0 IU/mg
IC50 [2]: 176 nM
Kb [4]: > 1000 nM
Activity [5]: inactive
SMILES: CCOc1ccc(CC2NC(=O)CCSSC[C@@H](C(=O)N3Cc4ccccc4C[C@H]3C(=O)N[C@@H](CC(C)C)C(=O)NCC(N)=O)NC(=O)[C@H](CC(N)=O)NC(=O)[C@H](CCC(N)=O)NC(=O)[C@H]([C@@H](C)CC)NC2=O)cc1 (stereo in doubt)

Activity [3]: 0 IU/mg
Activity [5]: inactive
SMILES: CCOc1ccc(CC2NC(=O)CCSSC[C@@H](C(=O)NC(C)(C)C(=O)N[C@@H](CC(C)C)C(=O)N3CCCC[C@@H]3C(N)=O)NC(=O)[C@H](CC(N)=O)NC(=O)[C@H](CCC(N)=O)NC(=O)[C@H]([C@@H](C)CC)NC2=O)cc1 (stereo in doubt)

Kb [1]: 12.6 nM
Activity [3]: 0 IU/mg
IC50 [2]: 40 nM
Activity [5]: inactive
SMILES: CCOc1ccc(CC2NC(=O)CCSSC[C@@H](C(=O)N3CCCC[C@H]3C(=O)N[C@@H](CC(C)C)C(=O)NCC(N)=O)NC(=O)[C@H](CC(N)=O)NC(=O)[C@H](CCC(N)=O)NC(=O)[C@H]([C@@H](C)CC)NC2=O)cc1 (stereo in doubt)

Kb [1]: 10 nM
Activity [3]: 1 IU/mg
IC50 [2]: 380 nM
Activity [5]: inactive
SMILES: CC[C@H](C)[C@@H]1NC(=O)[C@H](Cc2ccc(O)cc2)NC(=O)CCSSC[C@@H](C(=O)N2Cc3ccccc3C[C@@H]2C(=O)N[C@@H](CC(C)C)C(=O)NCC(N)=O)NC(=O)[C@H](CC(N)=O)NC(=O)[C@H](CCC(N)=O)NC1=O

Kb [1]: 8.51 nM
Activity [3]: 0 IU/mg
IC50 [2]: 25 nM
Activity [5]: inactive
SMILES: CCOc1ccc(CC2NC(=O)CCSSC[C@@H](C(=O)N3Cc4ccccc4C[C@@H]3C(=O)N[C@@H](CC(C)C)C(=O)N3Cc4ccccc4C[C@@H]3C(N)=O)NC(=O)[C@H](CC(N)=O)NC(=O)[C@H](CCC(N)=O)NC(=O)[C@H]([C@@H](C)CC)NC2=O)cc1 (stereo in doubt)

Kb [1]: 43.7 nM
Activity [3]: 0 IU/mg
SMILES: CCOc1ccc(C[C@H]2NC(=O)[C@@H](N)CSSC[C@@H](C(=O)N3CCC[C@H]3C(=O)N[C@@H](CC(C)C)C(=O)NCC(N)=O)NC(=O)[C@H](CC(N)=O)NC(=O)[C@H](CCC(N)=O)NC(=O)[C@H]([C@@H](C)CC)NC2=O)cc1

Kb [4]: 151 nM
SMILES: CCc1ccc(C[C@H]2NC(=O)CCSSC[C@@H](C(=O)N3CCC[C@H]3C(=O)N[C@@H](CC(C)C)C(=O)NCC(N)=O)NC(=O)[C@H](CC(N)=O)NC(=O)[C@H](CCC(N)=O)NC(=O)[C@H]([C@@H](C)CC)NC2=O)cc1

Kb [1]: 4.9 nM
Activity [3]: 0 IU/mg
IC50 [2]: 80 nM
Activity [5]: inactive
SMILES: CCOc1ccc(CC2NC(=O)CCSSC[C@@H](C(=O)N3Cc4ccccc4C[C@@H]3C(=O)N[C@@H](CC(C)C)C(=O)NC(C)(C)C(N)=O)NC(=O)[C@H](CC(N)=O)NC(=O)[C@H](CCC(N)=O)NC(=O)[C@H]([C@@H](C)CC)NC2=O)cc1 (stereo in doubt)

Kb [1]: 17.8 nM
Activity [3]: 0 IU/mg
IC50 [2]: 485 nM
Activity [5]: inactive
SMILES: CCOc1ccc(CC2NC(=O)CCSSC[C@@H](C(=O)NC(C)(C)C(=O)N[C@@H](CC(C)C)C(=O)NCC(N)=O)NC(=O)[C@H](CC(N)=O)NC(=O)[C@H](CCC(N)=O)NC(=O)[C@H]([C@@H](C)CC)NC2=O)cc1 (stereo in doubt)
